Counter-ions that a name gives are not always drawn.
Molecular target: T1, Golgi α-mannosidase II (Canavalia ensiformis, UniProt C0HJB3)
T1 sequence (C0HJB3 1-981): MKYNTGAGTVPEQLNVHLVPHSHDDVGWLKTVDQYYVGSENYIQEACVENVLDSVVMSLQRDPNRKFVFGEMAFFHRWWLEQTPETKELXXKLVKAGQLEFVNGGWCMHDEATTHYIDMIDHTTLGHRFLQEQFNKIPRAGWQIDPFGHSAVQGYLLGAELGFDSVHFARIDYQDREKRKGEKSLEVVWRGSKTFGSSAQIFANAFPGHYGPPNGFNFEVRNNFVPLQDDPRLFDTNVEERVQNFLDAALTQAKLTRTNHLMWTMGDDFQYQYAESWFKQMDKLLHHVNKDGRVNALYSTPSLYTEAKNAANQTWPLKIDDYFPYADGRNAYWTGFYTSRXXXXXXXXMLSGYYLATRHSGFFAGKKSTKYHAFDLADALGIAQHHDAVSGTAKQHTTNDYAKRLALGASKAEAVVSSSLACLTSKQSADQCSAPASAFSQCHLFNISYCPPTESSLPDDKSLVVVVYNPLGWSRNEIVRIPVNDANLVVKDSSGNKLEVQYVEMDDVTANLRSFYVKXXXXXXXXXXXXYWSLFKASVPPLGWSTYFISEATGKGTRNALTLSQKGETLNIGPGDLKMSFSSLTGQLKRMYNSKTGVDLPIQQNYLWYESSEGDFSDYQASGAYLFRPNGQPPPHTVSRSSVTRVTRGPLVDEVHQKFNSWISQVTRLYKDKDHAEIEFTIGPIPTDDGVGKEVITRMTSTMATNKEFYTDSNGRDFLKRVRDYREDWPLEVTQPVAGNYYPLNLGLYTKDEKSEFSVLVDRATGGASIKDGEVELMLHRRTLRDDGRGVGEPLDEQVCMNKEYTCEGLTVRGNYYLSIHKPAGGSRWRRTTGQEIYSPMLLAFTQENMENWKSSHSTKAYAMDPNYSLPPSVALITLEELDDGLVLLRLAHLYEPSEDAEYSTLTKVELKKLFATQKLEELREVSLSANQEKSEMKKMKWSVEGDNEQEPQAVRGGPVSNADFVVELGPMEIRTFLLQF
Assay: not given
Format: biochemical
Settings: sodium acetate pH 5.6, 60 min at 37° C., p-nitrophenol read at 405
Experimental: (§1) 15 μl of α-mannosidase (Sigma 38 U/ml) was added to each well and the plates were incubated for 60 min at 37° C. The reaction was stopped by the addition of 50 μl of 0.5M sodium carbonate and formation of p-nitrophenol was measured with a plate set at […]. […] The reaction was stopped by the addition of 50 μl of 0.5M sodium carbonate and formation of p nitrophenol was measured with a plate set at 405.
With `OC1=C(O)N2CCC[C@@H](O)[C@H]2[C@@H]1O` [(1S,8R,8aS)-1,5,6,7,8,8a-Hexahydro-1,2,3,8-indolizinetetraol] the “MannoaidaseII Activity (μM)” value was “No detectable”.

Same assay, conditions: sodium acetate pH 5.6, 60 min at 37° C., p-nitrophenol read at 405; read-out: MannoaidaseII Activity
For `OCC1C(O)C(O)C2C(O)CCCN12` (stereo not shown) [EJH-4-263, 3-hydroxymethyl-swainsonine], the IC50 was 1.83 ± 1.3 µM. `O=C1[C@H](O)[C@@H](O)[C@@H]2[C@H](O)CCCN12` [GD 35, (1S,2R,8R,8aS)-1,2,8-Trihydroxyhexahydo-3(2II)-indolizinone] showed an IC50 of 1030 µM.

Molecular target: T2, lysosomal mannosidase (Homo sapiens, UniProt O00754)
T2 sequence (O00754 50-1011): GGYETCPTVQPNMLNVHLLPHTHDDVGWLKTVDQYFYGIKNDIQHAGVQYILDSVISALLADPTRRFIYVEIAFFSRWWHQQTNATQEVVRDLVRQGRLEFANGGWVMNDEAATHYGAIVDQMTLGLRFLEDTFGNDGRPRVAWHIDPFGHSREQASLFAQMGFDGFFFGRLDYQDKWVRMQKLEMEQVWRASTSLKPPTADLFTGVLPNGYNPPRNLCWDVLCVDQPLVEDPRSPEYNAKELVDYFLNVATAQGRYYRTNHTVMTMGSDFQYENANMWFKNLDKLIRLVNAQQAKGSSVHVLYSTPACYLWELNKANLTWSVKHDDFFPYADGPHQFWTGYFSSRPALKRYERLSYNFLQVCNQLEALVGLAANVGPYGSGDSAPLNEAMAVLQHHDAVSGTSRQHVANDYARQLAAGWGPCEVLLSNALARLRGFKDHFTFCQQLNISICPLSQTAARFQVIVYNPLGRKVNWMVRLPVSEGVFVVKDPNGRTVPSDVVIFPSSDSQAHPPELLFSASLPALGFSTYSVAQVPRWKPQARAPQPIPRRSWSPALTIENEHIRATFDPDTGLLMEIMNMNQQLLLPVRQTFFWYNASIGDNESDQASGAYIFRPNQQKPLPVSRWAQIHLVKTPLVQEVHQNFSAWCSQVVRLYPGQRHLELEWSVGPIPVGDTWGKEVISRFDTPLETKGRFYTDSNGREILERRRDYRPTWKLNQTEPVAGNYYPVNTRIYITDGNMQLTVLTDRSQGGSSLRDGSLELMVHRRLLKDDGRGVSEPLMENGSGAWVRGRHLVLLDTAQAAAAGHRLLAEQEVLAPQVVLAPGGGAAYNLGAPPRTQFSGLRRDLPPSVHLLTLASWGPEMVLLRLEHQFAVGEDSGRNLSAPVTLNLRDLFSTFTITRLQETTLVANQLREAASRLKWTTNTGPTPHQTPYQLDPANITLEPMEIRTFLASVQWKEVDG
Assay: biochemical
Settings: Lysosomal Mannosidase Activity (μM)
Experimental: as §1
For `O[C@H]1[C@H]2[C@H](O)CCCN2C[C@H]1O` [Swainsonine, reference compound], the IC50 was 0.08 ± 0.079 µM.

Same assay, conditions: sodium acetate pH 5.0, 60 min at 37° C., p-nitrophenol read at 405
In the case of `OC1=C(O)N2CCC[C@@H](O)[C@H]2[C@@H]1O` [(1S,8R,8aS)-1,5,6,7,8,8a-Hexahydro-1,2,3,8-indolizinetetraol], the “Lysosomal Mannosidase Activity (μM)” value is reported as “No detectable inhibition”.

Same assay, conditions: sodium acetate pH 5.0, 60 min at 37° C., p-nitrophenol read at 405; read-out: Lysosomal Mannosidase Activity
`CC1CCC(O)C2C(O)C(O)CN12` (single isomer, unassigned) [GD37] showed an IC50 of 28.2 ± 7.85 µM. In the case of `OC1CN2C(COCc3ccccc3)CCC(O)C2C1O` (single isomer, unassigned) [GD42], the IC50 is reported as 0.164 ± 0.0491 µM. For `CC1CCC(O)C2C(O)C(O)CN12` (single isomer, unassigned) [GD 20], the IC50 was 2.3 ± 1.13 µM. In the case of `CC1CCC(O)C2C(O)C(O)CN12` (single isomer, unassigned) [GD 28], the IC50 is reported as 0.316 ± 0.0759 µM. With `OC1CN2C(COCc3ccccc3)CCC(O)C2C1O` (single isomer, unassigned) [GD 91] the IC50 was 3.23 ± 0.268 µM. `N#CC1C(O)[C@@H](O)C2[C@H](O)CCCN12` (stereo in doubt) [GD 92, (1S, 2S, 3R/S, 8R, 8aS)-3-cyano-1,2,8-Trihydroxyoctahydroindolizine] gave an IC50 of 30.1 ± 1.2 µM. With `OCC1C(O)C(O)C2C(O)CCCN12` (stereo not shown) [EJH-4-263, 3-hydroxymethyl-swainsonine] the IC50 was 39.1 ± 16.3 µM. In the case of `OCC1C(O)C(O)C2C(O)CCCN12` (stereo not shown) [EJH-4-264, 3-hydroxymethyl-swainsonine], the IC50 is reported as 1.7 ± 0.5 µM. Compound `CC1CCC(O)C2C(O)C(O)CN12` [GD19, (5R)-5-Methylswainsonine formate salt] has an IC50 of 1.45 ± 0.071 µM. In the case of `C[C@H]1[C@@H](CO)C[C@@H](O)[C@@H]2[C@H](O)[C@H](O)CN21` [GD40, (5S,6S)-6-Hydroxymethyl-5-methylswainsonine], the IC50 is reported as 62.4 ± 17.9 µM. In the case of `C[C@@H]1[C@H](CO)C[C@@H](O)[C@@H]2[C@H](O)[C@H](O)CN21` [GD44, (5R,6R)-6-Hydroxymethyl-5-methylswainsonine], the IC50 is reported as 24.5 ± 7.62 µM. With `OC[C@H]1CC[C@@H](O)[C@@H]2[C@H](O)[C@H](O)CN12` [GD45, (5R)-5-(Hydroxymethyl)swainsonine] the IC50 was 0.705 ± 0.309 µM. In the case of `CCOC(=O)C1CC(O)C2C(O)C(O)CN2C1C` [GD84, ethyl (5R,6R)-5-methylswainsonine-6-carboxylate], the IC50 is reported as 1500 ± 707 µM. `O=C1[C@H](O)[C@@H](O)[C@@H]2[C@H](O)CCCN12` [GD 35, (1S,2R,8R,8aS)-1,2,8-Trihydroxyhexahydo-3(2II)-indolizinone] showed an IC50 of 1090 µM. With `CCOC(=O)[C@H]1C[C@H](O)[C@@H]2[C@@H](O)[C@H](O)CN2[C@H]1C` [GD 36, ethyl (1R,2R,5S,6S,8S,8aR)-1,2,8-trihydroxy-5-methyloctahydro-6-indolizinecarboxylate] the IC50 was 120 ± 32.2 µM. `CC[C@H]1CC[C@@H](O)[C@@H]2[C@H](O)[C@H](O)CN12` [GD 38, (5S)-5-Ethylswainsonine] showed an IC50 of 0.36 ± 0.313 µM. `OC[C@@H]1CC[C@@H](O)[C@@H]2[C@H](O)[C@H](O)CN12` [GD 46, (5S)-5-(Hydroxymethyl)swainsonine] gave an IC50 of 1.48 ± 0.455 µM.

Tested on: MDAY-D2 tumor cells
Assay: not given
Settings: viable MDAY-D2 tumor cells; cited from earlier work
For `CCCC(=O)OC1CN2CCCC(O)C2C1O` (stereo not shown) [2-butanoyloxy], the “activity as inhibitors of Golgi oligosaccharide processing” value (shortened to “activity as inhibitors”) is given as “retained full activity”. In the case of `CCCCCCCC(=O)OC1CN2CCCC(O)C2C1O` (stereo not shown) [2-octanoyloxy], the “activity as inhibitors” value is given as “retained full activity”. In the case of `O=C(OC1CN2CCCC(O)C2C1O)c1ccc([N+](=O)[O-])cc1` (stereo not shown) [2-p-nitrobenzoyloxy], the “activity as inhibitors” value is given as “retained full activity”.

Reference: patent US20030236229A1 (priority 1996, published 2003)
